Measured values as given in PubChem BioAssay (NCI).
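All cell lines were grown in 96-well plates and treated with compound for 48 hours. GI50 is the concentration that inhibits growth by half. TGI: total growth inhibition.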

test system: MDA-MB-468 breast; experiment: DTP human tumour cell line panel, 48 h

Compound | GI50 [nM] | TGI [nM]
C=C1C(=O)O[C@H]2[C@H]1CC/C(COC(=O)CCCCC(=O)OC/C1=C/CC[C@@]3(C)O[C@H]3[C@H]3OC(=O)C(=C)[C@@H]3CC1)=C\CC[C@@]1(C)O[C@@H]21 | 1660 | 5110
Oc1ccc2cc(Br)ccc2c1-c1c(O)ccc2cc(Br)ccc12 | 3620 | 11700
COc1ccccc1OCC(=O)Nc1sc2c(c1C(N)=O)CCC2 | > 100000 | > 100000
CC1=CC(=NC(=O)CBr)C=C/C1=N\S(=O)(=O)c1ccccc1 | 2410 | 8010
c1ccc(Cn2cc3c(c2-c2ccccc2)CCc2cnoc2-3)cc1 | 2060 | 8020
Cc1cc(N2CCCCC2)nc(N(CCCNc2ccnc3cc(Cl)ccc23)Cc2ccco2)n1 | 1720 | 3870
CC1(C)CC[C@]23CC[C@]4(C)[C@H](CC[C@@H]5[C@@]6(C)CCCN(CO)C(C)(C)[C@@H]6CC[C@]54C)[C@H]2[C@H]1OC3 | 1810 | 4180
COc1cc(-c2nc(Nc3nc4ccccc4[nH]3)nc(N)c2C#N)cc(OC)c1OC | 1390 | 26600
CCN(CC)CCCC(C)Nc1cnc(C(=O)Nc2ccc(Cl)c3cccnc23)cn1 (stereo unspecified) | 1570 | 3490
CCOc1c(Br)cc(C2C(C(=O)OC)=CN(C)C=C2C(=O)OC)cc1OC | 37700 | > 100000
C[C@@H]1CN(C(=O)c2ccc(NC(=O)c3cc(O[C@H](C)c4c(Cl)ccc(F)c4Cl)c(N)nn3)cc2)C[C@H](C)N1 | 2510 | 9870
CC[C@H](C)[C@H]1NC(=O)[C@@H](N[C@](C)(O)[C@@H](N)CC(C)C)[C@@H](C)OC(=O)[C@H](Cc2ccc(OC)cc2)N(C)C(=O)[C@@H]2CCCN2C(=O)[C@H](CC(C)C)NC(=O)[C@@H](C)C(=O)[C@H](C(C)C)OC(=O)C[C@@H]1O | 21.7 | 261
N#C/C(=C\c1ccc(-c2ccc(Cl)cc2)o1)C(=O)Nc1ncc(Cc2ccc(Cl)cc2)s1 | 2380 | 6490
COc1ccc2nc(-c3cc(-c4cc(OC)c(OC)c(OC)c4)n[nH]3)[nH]c2c1 | 388 | 4960
O=C1NN(c2ccc(C(=O)O)cc2)C(=O)/C1=C\c1ccc([N+](=O)[O-])o1 | 22500 | 57400
O=C1CC(c2ccc(N3CCOCC3)cc2)(c2ccsc2)NC(=O)C1Sc1ccccc1Cl (stereo unspecified) | 86700 | > 100000
CC[C@@H](C(=O)[C@@H](C)[C@@H](O)[C@H](C)[C@@H]1O[C@@H]([C@@H](CC)C(=O)O)CC[C@@H]1C)C1O[C@]2(C=CC(=O)[C@]3(CC[C@@](C)([C@H]4CC[C@](O)(CC)[C@H](C)O4)O3)O2)[C@H](C)C[C@@H]1C (stereo partly specified) | 85.7 | 1960
CCCN(CCC)C(=O)C1=Cc2ccc(-c3ccc(C(=O)N4CCCC4)cc3)cc2N=C(N)C1 | 2560 | 11800
O=c1c2cccc(Cl)c2sc2c(NCCCNCCO)nc3ccccc3c12 | 1190 | 2980
COC(=O)Nc1nc2ccc(Oc3ccc(NC(=O)Nc4cccc(C(=O)O)c4)cc3)cc2[nH]1 | 998 | 12800
COc1cc2nc(-c3cnc(N(C)C)nc3)nc(NC3CCN(Cc4ccccc4)CC3)c2cc1OC | 1380 | 2960
C[n+]1c(/C=C\c2ccc(Cl)cc2)ccc2ccccc21 | 2360 | 8370

Compound | GI50 [nM] | TGI [nM]
CCOc1cccc(/C=N/NC(=O)c2ccc(Nc3ccnc(C(F)(F)F)c3)cc2)c1O | 349 | 2960
CCC(C)(C)C(=O)O[C@H]1C[C@@H](C)C=C2C=C[C@H](C)[C@H](CC[C@@H]3C[C@@H](O)CC(=O)O3)[C@H]21 | 1620 | 6680
Cc1nn(-c2nc3ccccc3s2)c(C)c1Oc1ccccc1O | 1130 | 27400
COc1cccc(C2c3cc4c(cc3OC(C)(O)C2C)OCO4)c1O (stereo unspecified) | 4830 | 56600
CN(C)c1ccc(N2Cc3ccccc3OC3=C2C(=O)c2c(O)ccc(O)c2C3=O)cn1 | 169 | 425
COc1cc(NS(C)(=O)=O)ccc1Nc1c2ccc(Cl)cc2nc2c(OC)cccc12 | 136 | 484
COc1ccc(N(CC(=O)NCCC[Te]c2ccccc2)C(=O)c2ccccc2)cc1 | 4240 | 17600
O=c1cc(-c2ccccc2)[nH]c2cc(F)c(F)cc12 | 384 | > 100000
Cn1cc(-c2nc(-c3c[nH]c4ncccc34)cs2)c2cc(F)ccc21 | 69 | 725
C/C=C(\C)C(=O)N[C@H]1CC[C@]2(C)C3CC[C@@]4(C)C(CC[C@@H]4C(C)N(C)C)C3CCC2[C@H]1OC(C)=O (stereo partly specified) | 1170 | 2630
Cn1nccc1Nc1nccc(-c2cc3c(s2)C(C)(C)N(CCN2CCOCC2)C3=O)n1 | 6100 | > 83500
COc1cc(C(=O)c2ccc3c(c2)OCO3)cc(OC)c1OC | 586 | 3320
CC(C)(C)NC(C1=CC(C)(C)c2ccccc2C1=O)c1ccccc1 (stereo unspecified) | 245 | 1660
COc1ccc2c(c1)C(=O)/C(=C/c1cccc(OCC(=O)Nc3nc4c(s3)CCCC4)c1)O2 | 188 | 353
C1=Cc2ccccc2Nc2ccccc21 | 4360 | 33700
O=[N+]([O-])c1ccc(Br)c([N+](=O)[O-])c1 | 1670 | 3270
Cn1cc(C2=C(c3cccc4ccccc34)C(=O)NC2=O)c2ccccc21 | 8240 | > 25000
COc1ccc(-c2[nH]c3ccccc3c2C=C(C#N)C#N)cc1 | 557 | > 100000
CC1=C[C@H]2c3c(c(O)c(O)c4oc5c(C)cccc5c(=O)c34)[C@H](c3cc(O)c(O)c4oc5c(C)cccc5c(=O)c34)[C@H]2C(C)(C)C1 | 2620 | 7860
Cn1ccnc1C(=O)/C=C/c1ccc(C(=O)Nc2ccc(Cl)cc2)cc1 | 793 | 2800
Cn1cncc1[C@@](N)(c1ccc(Cl)cc1)c1ccc2c(c1)c(-c1cccc(Cl)c1)cc(=O)n2C | 1690 | 6760
